Like-named read-outs stand apart in the source and are kept apart here.

Test [1] deals with NQO1 specific enzyme activity in BEAS-2B cells (marker for NRF2 activation). The experiment in a line: BEAS-2B NQO1 MTT Assay. The test is classed as cell-based. As to conditions: compound incubated 48 hours, read-out: EC50 (NQO1 specific enzyme activity induction). The text has this:
BEAS-2B NQO1 MTT Assay NAD(P)H:quinone oxidoreductase 1 (NQO1), also called DT diaphorase, is a homodimeric FAD-containing enzyme that catalyzes obligatory NAD(P)H-dependent two-electron reductions of quinones and protects cells against the toxic and neoplastic effects of free radicals and reactive oxygen species arising from one-electron reductions. The transcription of NQO1 is finely regulated by NRF2, and thus NQO1 activity is a good marker for NRF2 activation. On day one, frozen BEAS-2B cells (ATCC) are thawed in a water bath, counted, and re-suspended at a concentration of 250,000 cells/mL. Fifty microliters of cells are plated in 384 well black clear-bottomed plates. Plates are incubated at 37° C., 5% CO2 overnight. On day two, plates are centrifuged and 50 nL of compound or controls are added to the cells. Plates are then incubated at 37° C., 5% CO2 for 48 hours. On day four, medium is aspirated from the plate and crude cell lysates are made by adding 13 uL of 1× Cell Signaling Technologies lysis buffer with 1 Complete, Mini, EDTA-free Protease Inhibitor Tablet (Roche) for each 10 mL of lysis buffer. After lysis plates are incubated for 20 minutes at room temperature. Two microliters of lysate are removed for use in Cell Titer Glo assay (Promega) and MTT cocktail is prepared (Prochaska et. al. 1998) for measurement of NQO1 activity. Fifty microliters of MTT cocktail is added to each well, plate is centrifuged, and analyzed on an Envision plate reader (Perkin Elmer) using Absorbance 570 nm label for 30 minutes. Product formation is measured kinetically and the pEC50 of NQO1 specific activity induction is calculated by plotting the change in absorbance (Delta OD/min) versus the log of compound concentration followed by 3-parameter fitting. pEC50 is the negative log of the EC50.

Test [2] has as its target T1, full length Keap1 protein / full length NRF2 protein (Homo sapiens, UniProt Q14145).
T1 construct: full length NRF2 protein and full length Keap1 protein (Keap1 exists a dimer) are used; His
The experiment in a line: NRF2-Keap1 TR-FRET Low Protein Assay. The test is classed as binding. As to conditions: 1.25 nM Keap1 FlagHis and 2.5 nM biotin-NRF2 added. From the text:
NRF2-Keap1 TR-FRET Low Protein Assay In the NRF2-Keap1 TR-FRET (time-resolved fluorescence resonance energy transfer) low protein assay, full length NRF2 protein and full length Keap1 protein (Keap1 exists a dimer) are used. The assay detects a compound's ability to displace the binding of Keap1 […] with biotinylated Avi-NRF2 protein. Biotin-NRF2 binds to streptavidin-europium (a component of the detection mix) and Keap1 […] is recognized by anti-Flag APC (allophycocyanin) antibody (also a component of the detection mix). If binding occurs between the two proteins, there will be an energy transfer from the Eu+3 (donor) at 615 nm to the APC (acceptor) at 665 nm. A potential NRF2 inhibitor will cause a reduction in the TR-FRET signal by interfering with the binding of Keap1 to NRF2. Ten nanoliters of 100× compound dose response curves (serial 3-fold dilutions) in DMSO are stamped using an Echo liquid handling system (Labcyte) into 384-well, low volume, black assay plates (Greiner, #784076), with DMSO in columns 6 and 18. An additional 90 nl DMSO is added to each well, to bring the total volume to 100 nl per well. The top concentration of compound is located in columns 1 and 13, with the serial dilutions going across the row. All reagents are diluted in assay buffer (50 mM Tris, pH 8.0, 5 mM MgCl2, 100 mM NaCl, 0.005% BSA, 1 mM DTT, and 2 mM CHAPS. The BSA, DTT, and CHAPS are added to the assay buffer on the day of assay. […] Wells in column 18 receive 5 ul of assay buffer instead. Plates are centrifuged at 500 rpm for 1 minute, covered with a plate lid, and incubated at 37° C. for 2.25 hours. Plates are then removed from the incubator and allowed to cool to RT for 15 minutes. Five microliters of 2.5 nM biotin-NRF2 protein is then added to all wells of the plates and the plates are spun at 500 rpm for 1 minute, followed by incubating at 4° C. for 1.25 hours. The plates are then allowed to warm to RT for 15 minutes, followed by the addition of 10 ul of detection mix (1 nM Streptavidin Eu+W1024 and 5 ug/ml mouse anti-DYKDDDDK IgG conjugated to SureLight APC antibody; both from Columbia Biosciences) to all wells. Plates are spun at 500 rpm for 1 minute, incubated for 1 hour at RT, and read on an Envision plate reader using a 320 nm excitation filter and 615 nm and 665 nm emission filters. […] Data analysis is handled using the software package Abase XE (Surrey, United Kingdom). […] For calculation of pIC50s, Abase XE uses a four parameter equation. pIC50 is the negative log of the IC50.
In general terms: In TR-FRET formats the signal depends on donor and acceptor labels being close together.

The target of test [3] is T2, Keap1 Kelch domain (321-609) / TAMRA-labeled 16mer NRF2 peptide (ETGE motif) (Homo sapiens, UniProt Q14145).
T2 construct: the Kelch domain (321-609) of Keap1 is used
Briefly: NRF2-Keap1 FP Assay (Keap1 Kelch fluorescence polarization). The test is classed as binding. As to conditions: 20 nM Keap1 (321-609), 8 nM Tamra labeled peptide. The text has this: One model for the NRF2-Keap1 interaction is through two binding sites in the Neh2 domain on NRF2. The two sites are referred to as the DLG binding motif (latch domain, uM affinity) and the ETGE binding motif (hinge domain, nM affinity). The Keap1 protein consists of an N-terminal region (NTR), a broad complex, tramtrack, and brick a′ brac domain (BTB), an intervening region (IVR), a double glycine repeat domain (DGR or Kelch), and a C-terminal region. The DLG and ETGE motifs of NRF2's Neh2 domain bind to the Kelch domain of Keap1 at different affinities. In the Keap1 Kelch fluorescence polarization (FP) assay, a TAMRA-labeled 16mer peptide (AFFAQLQLDEETGEFL) containing the ETGE motif of NRF2 and the Kelch domain (321-609) of Keap1 is used. The assay determines if a compound interferes with the binding between Keap1 […] and the TAMRA-labeled peptide. Binding of TAMRA-labeled NRF2 peptide to Keap1 (321-609) results in a high FP signal. If a compound interferes with the binding between the peptide and the protein, it will cause the assay signal to decrease. Thus, assay signal is inversely proportional to binding inhibition.
100 nl of 100× compound dose response curves (serial 3-fold dilutions) in DMSO are stamped using an Echo liquid handling system (Labcyte) into 384-well low volume black assay plates (Greiner, #784076), with DMSO in columns 6 and 18. The top concentration of compound is located in columns 1 and 13. Keap1 (321-609) is diluted to 40 nM (2×) in 1× assay buffer (50 mM Tris, pH 8.0, 100 mM NaCl, 5 mM MgCl2, 1 mM DTT, 2 mM CHAPS, and 0.005% BSA) and 5 ul is added using a Multidrop Combi (Thermo Electron Corporation) equipped with a metal tip dispenser to all wells of the compound plate, except column 18. Column 18 receives only 5 ul of assay buffer. Immediately, 5 uL of 16 nM (2×) of Tamra labeled peptide (AFFAQLQLDEETGEFL, 21st Century Biochemicals) is added to all wells of the plate. The plates are spun at 500 rpm for 1 min, incubated for 1 hr at room temperature, and read on an Analyst GT (Molecular Devices) equipped with excitation (530/25 nm) and emission (580/10 nm) filters designed for Tamra probes. A 561 nm dichroic mirror is also used in the Analyst. The final assay concentrations of Keap1 (321-609) and Tamra labeled peptide are 20 nM and 8 nM, respectively. Fluorescence measurements, represented as mP, are used in the transformation of the data. Compound activity is calculated based on percent inhibition, normalized against controls in the assay (Control 1 contains the Tamra peptide and Keap1 (321-609) together (0% response) and control 2 contains the Tamra peptide alone (100% response)). Data analysis is handled using the software package Abase XE (Surrey, United Kingdom. The % inhibition values are calculated by the equation: 100−(100*((compound response−average control 2)/(average control 1−average control2))). For calculation of pIC50s, Abase XE uses a four parameter equation. pIC50 is the negative log of the IC50.
(In fluorescence polarisation assays a small probe gives low polarisation when free and higher when bound to something large.)

T2 sequence (Q14145 321-609): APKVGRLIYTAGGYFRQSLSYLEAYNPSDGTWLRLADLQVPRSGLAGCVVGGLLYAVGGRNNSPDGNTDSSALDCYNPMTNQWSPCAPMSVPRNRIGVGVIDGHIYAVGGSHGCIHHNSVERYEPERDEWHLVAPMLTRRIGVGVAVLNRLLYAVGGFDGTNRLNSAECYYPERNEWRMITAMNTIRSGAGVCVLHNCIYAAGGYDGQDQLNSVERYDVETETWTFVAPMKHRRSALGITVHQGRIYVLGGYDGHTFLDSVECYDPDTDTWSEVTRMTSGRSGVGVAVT
T1 sequence (Q14145 whole entry): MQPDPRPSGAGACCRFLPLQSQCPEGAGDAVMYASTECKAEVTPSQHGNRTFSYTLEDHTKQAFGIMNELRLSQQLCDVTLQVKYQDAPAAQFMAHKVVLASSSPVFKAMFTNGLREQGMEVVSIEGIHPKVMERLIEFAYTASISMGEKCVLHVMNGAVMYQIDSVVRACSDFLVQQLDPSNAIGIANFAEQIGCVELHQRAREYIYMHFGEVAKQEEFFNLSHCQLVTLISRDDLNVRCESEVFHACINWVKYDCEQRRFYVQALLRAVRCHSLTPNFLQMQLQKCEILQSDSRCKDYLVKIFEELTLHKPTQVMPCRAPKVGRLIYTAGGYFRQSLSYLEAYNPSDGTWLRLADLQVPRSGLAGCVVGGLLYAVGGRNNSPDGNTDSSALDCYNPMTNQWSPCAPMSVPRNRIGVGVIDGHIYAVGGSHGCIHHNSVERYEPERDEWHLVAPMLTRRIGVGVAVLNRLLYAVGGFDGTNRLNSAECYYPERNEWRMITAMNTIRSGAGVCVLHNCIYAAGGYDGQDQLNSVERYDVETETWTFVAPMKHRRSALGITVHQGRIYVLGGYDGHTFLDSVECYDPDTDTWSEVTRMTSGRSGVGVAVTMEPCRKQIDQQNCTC

In the case of “1-(3′-((1-Ethyl-2,3-dihydro-1H-benzo[e][1,4]diazepin-4(5H)-yl)methyl)-[1,1′-biphenyl]-3-yl)-5-((1,2-trans)-2-(1-methyl-1H-1,2,3-triazol-4-yl)cyclopropyl)-1H-pyrazole-4-carboxylic Acid [Example 127]”, the EC50 – broadly, the midpoint of the concentration-response curve – in test [1] was in the range of 100 to 1000 nM. For the same molecule, the IC50 in test [2] and in test [3] was 10 to 100 nM in each case. For `C[C@H](Oc1cccc(-c2cccc(-n3ncc(C(=O)O)c3[C@@H]3C[C@H]3c3cn(C)nn3)c2)c1)C1CCCCC1` (racemic) [Example 75, 1-(3′-((S)-1-Cyclohexylethoxy)-[1,1′-biphenyl]-3-yl)-5-(trans-2-(1-methyl-1H-1,2,3-triazol-4-yl)cyclopropyl)-1H-pyrazole-4-carboxylic Acid], in test [1] (Homo sapiens, BEAS-2B, 48 h), the EC50 was in the range of 1 to 10 nM. Take `C[C@H](Oc1cccc(-c2cccc(-n3ncc(C(=O)O)c3[C@@H]3C[C@H]3c3cn(C4CC4)nn3)c2)c1)C1CCCCC1` (racemic) [Example 79, 1-(3′-((S)-1-Cyclohexylethoxy)-[1,1′-biphenyl]-3-yl)-5-(trans-2-(1-cyclopropyl-1H-1,2,3-triazol-4-yl)cyclopropyl)-1H-pyrazole-4-carboxylic acid]: in test [1] (Homo sapiens), the EC50 fell in the range of 1 to 10 nM.

For the molecule `C[C@H](Oc1cccc(-c2cccc(-n3ncc(C(=O)O)c3[C@@H]3C[C@H]3c3cn(C4CCOCC4)nn3)c2)c1)C1CCCCC1` (racemic) [Example 83, 1-(3′-((S)-1-Cyclohexylethoxy)-[1,1′-biphenyl]-3-yl)-5-(trans-2-(1-(tetrahydro-2H-pyran-4-yl)-1H-1,2,3-triazol-4-yl)cyclopropyl)-1H-pyrazole-4-carboxylic acid], in test [1] (Homo sapiens), the EC50 lay within 1 to 10 nM.

Turning to `C[C@H](Oc1cccc(-c2cccc(-n3ncc(C(=O)O)c3[C@@H]3C[C@H]3c3cn(CC(F)(F)F)nn3)c2)c1)C1CCCCC1` (racemic) [Example 89, 1-(3′-((S)-1-Cyclohexylethoxy)-[1,1′-biphenyl]-3-yl)-5-(trans-2-(1-(2,2,2-trifluoroethyl)-1H-1,2,3-triazol-4-yl)cyclopropyl)-1H-pyrazole-4-carboxylic acid], the EC50 in test [1] (Homo sapiens) was 1 to 10 nM. On the same count and under the same terms, the value for `C[C@H](Oc1cccc(-c2cccc(-n3ncc(C(=O)O)c3[C@@H]3C[C@H]3c3c[nH]nn3)c2)c1)C1CCCCC1` (racemic) [Example 93, 5-(trans-2-(1H-1,2,3-Triazol-4-yl)cyclopropyl)-1-(3′-((S)-1-cyclohexylethoxy)-[1,1′-biphenyl]-3-yl)-1H-pyrazole-4-carboxylic Acid] was 1 to 10 nM; that for `C[C@H]1Cc2ccccc2S(=O)(=O)N(Cc2cccc(-c3cccc(-n4ncc(C(=O)O)c4[C@@H]4C[C@H]4c4cn(C)nn4)c3)c2)C1` (racemic) [Example 136, 1-(3′-(((S)-4-methyl-1,1-dioxido-4,5-dihydrobenzo[f][1,2]thiazepin-2(3H)-yl)methyl)-[1,1′-biphenyl]-3-yl)-5-((1,2-trans)-2-(1-methyl-1H-1,2,3-triazol-4-yl)cyclopropyl)-1H-pyrazole-4-carboxylic acid] was 100 to 1000 nM; that for `C[C@@H]1Cc2ccccc2S(=O)(=O)N(Cc2cccc(-c3cccc(-n4ncc(C(=O)O)c4[C@@H]4C[C@H]4c4cn(C)nn4)c3)c2)C1` (racemic) [Example 137, 1-(3′-(((R)-4-methyl-1,1-dioxido-4,5-dihydrobenzo[f][1,2]thiazepin-2(3H)-yl)methyl)-[1,1′-biphenyl]-3-yl)-5-((1,2-trans)-2-(1-methyl-1H-1,2,3-triazol-4-yl)cyclopropyl)-1H-pyrazole-4-carboxylic acid] was 10 to 100 nM. Regarding `CCC[C@@H]1CCCCN1C(=O)c1cccc(-c2cccc(-n3ncc(C(=O)O)c3[C@@H]3C[C@H]3c3cn(C)nn3)c2)c1` (racemic) [Example 199, 5-((1,2-trans)-2-(1-methyl-1H-1,2,3-triazol-4-yl)cyclopropyl)-1-(3′-((R)-2-propylpiperidine-1-carbonyl)-[1,1′-biphenyl]-3-yl)-1H-pyrazole-4-carboxylic acid], the EC50 in test [1] (Homo sapiens, BEAS-2B, 48 h) was in the range of 10 to 100 nM.

For the molecule `CC(Cc1cccc(-c2cccc(-n3ncc(C(=O)O)c3[C@@H]3C[C@H]3c3cn(C)nn3)c2)c1)C1CCCCC1` (single isomer, unassigned) [Example 116f, 1-(3′-((R) or (S)-2-Cyclohexylpropyl)-[1,1′-biphenyl]-3-yl)-5-((1R,2R)-2-(1-methyl-1H-1,2,3-triazol-4-yl)cyclopropyl)-1H-pyrazole-4-carboxylic Acid], the EC50 in test [1] is 1 to 10 nM. For the same molecule, in test [3], the half-maximal inhibitory concentration (IC50) (as a rule, the concentration at which inhibition is half-maximal) is 10 to 100 nM.

Values taken from patent publication US10364256B2 (GlaxoSmithKline Intellectual Property Development Limited, priority 2015, dated 2019).
